Several values for one entry are separate records, joined by “and”; a condition that tells them apart may be missing. Equal entries are not always repeated.
What was measured:
[1] = test system: multi-drug-resistant breast cancer cell line MDA-MB-231; assay: Cell growth assay on MDA-MB-231 cells; format: cell-based; details: MDA-MB-231, breast carcinoma
Protocol: (§1) Compositions were tested on CHOP-resistant G3 NHL cells that had been cultivated in RPMI medium for five days. Prior to assay, the cells were counted by haemocytometer and cell concentration standardized to 625,000 cells/ml. Test drugs were solubilized in 100% DMSO and then diluted to final assay concentration with 0.1M phosphate buffered saline (PBS) and a final DMSO concentration of 0.5%. Cells were added to assay plates containing the test drugs (rifabutin+148 ng/ml, 74 ng/ml, 37 ng/ml, or 0 ng/ml doxorubicin) and allowed to incubate for 96 hours at 37° C. and 5% CO2. The metabolic dye rezasurin was added to the wells of the assay plate at a final concentration of 20 μg/ml and the plates were incubated for an additional 24 hours. The plates were then read in a BMG Polarstar plate reader at wavelength (573-605) and the data plotted as OD versus increasing dilutions (i.e. decreasing total amounts) of rifabutin derivative concentration.
(§2) In these experiments, the following cell lines were used: CHOP-resistant NHL cell line G3, CHOP-sensitive NHL cell line CRL2631, the multi-drug resistant sarcoma cell line MES-SA-Dx5; multi-drug-resistant breast cancer cell line MDA-MB-231, multi-drug resistant ovarian carcinoma cell line SK-OV3, multi-drug resistant ovarian cancer cell line NCI/ADR-RES, drug-sensitive ovarian cancer cell line OVCAR-5, and multi-drug resistant ovarian cancer cell line OVCAR-3.
(§3) Additional cell lines used include: ovarian cancer OVCAR-8, T lymphoblastoid leukemia MOLT-4, dexamethasone-resistant multiple myeloma MM.1R, myeloid leukemia cells HL-60, osteosarcoma cells U-2 OS, and myeloma RPMI 8226.

[2] = test system: CHOP-sensitive NHL cell line CRL2631; assay: Cell growth assay (resazurin) on CHOP-sensitive CRL2631 NHL cells; format: cell-based, human
[3] = test system: lymphoma aspirate from a dog with CHOP-resistant lymphoma; assay: CHOP responsiveness of dog lymphoma aspirate (resazurin); format: cell-based
Protocol: A single lymphoma aspirate from a dog with CHOP-resistant lymphoma was tested for responsiveness to CHOP in the presence or absence of rifabutin. CHOP-responsiveness was measured by a decrease in fluorescence signal generated by resazurin.

[4] = test system: human ovarian cancer cell line SK-OV-3; assay: SK-OV-3 xenograft efficacy study in SCID mice; format: in vivo
Protocol: In a fifth efficacy study, we generated xenografts of the human ovarian cancer cell line SK-OV-3, a cell line considered doxorubicin-resistant, by bilateral subcutaneous (s.c.) injection of 1×10^7 tumor cells to establish localized tumors in 6-8 week old female SCID mice. Using rifabutin co-administered with DOX, in vivo efficacy was assessed. […] Cycles of Dox or Dox+rifabutin were given once a week for 4 cycles. This cyclical dosing scheme of mouse models has precedent in the literature and is intended to mimic the cycles of DOXIL® (Centocor Ortho Biotech Products, LP, Raritan, N.J.) given in the clinic. Rifabutin was administered on the day of each DOX treatment and by gavage. Mouse body weight and tumor size were monitored.

G3 cells [5] = assay: Modified Boyden chamber invasion assay, G3 cells; format: cell-based, human; details: 10 μM rifabutin 24 hours; DMSO 170,374
Protocol: A modified Boyden chamber assay was used as an independent method to evaluate rifabutin's ability to suppress invasion/metastasis. […] Cell invasion was assessed with a Chemicon QCM Collagen Invasion Assay (Millipore). The assay is a 96-well plate assay wherein each well is equipped with a suspended insert. Inserts contain an 8-micron membrane coated with a thin layer of polymerized collagen. Invading cells migrate through the collagen layer and attach to the bottom of the membrane. Cells were detached from the membrane and lysed prior to detection via CyQuant dye. Fluorescence intensity is proportional to number of invading cells. […] In CRL2631 cells RLU decreases from 39,356 to 27,432 RLU in the presence of rifabutin (p<0.05).

[6] = test system: multi-drug resistant sarcoma cell line MES-SA-Dx5; assay: Cell growth assay on MES-SA-Dx5 cells; format: cell-based; details: MES-SA-Dx5, uterus sarcoma
Protocol: as §1, §2, §3

[7] = test system: multi-drug resistant ovarian carcinoma cell line SK-OV3; assay: Cell growth assay on SK-OV3 cells; format: cell-based, human; details: SK-OV3, ovarian carcinoma
G3 cells [8] = assay: Collagen invasion 3D assay, G3 cells; format: cell-based, human; details: 10 uM Rifabutin in collagen matrix, 24 hours
Protocol: The effects of rifabutin on cell invasion was assessed in a collagen invasion 3D assay. Increased interest in the use of 3D culture systems has been motivated by accumulating evidence that 3D models better reflect the microenvironment of tumors and metastases and more accurately predict therapeutic response in vivo compared with conventional 2D assays. A collagen invasion 3D assay allows the rapid and quantitative assessment of invasiveness and a means to screen for drugs which alter the invasive phenotype of tumor cells.
The CHOP-resistant G3 cell line is much more invasive in a collage invasion 3D assay than its CHOP-sensitive parent cell line (CRL2631). Collagen matrices (1 mg/ml) were prepared as previously described in Su, S. C., et al., Molecular profile of endothelial invasion of three-dimensional collagen matrices: insights into angiogenic sprout induction in wound healing. Am. J. Physiol. […] Cell invasion density was quantified by counting fixed cultures under transmitted light using an Olympus CK2 inverted microscope equipped with eyepieces displaying a 10×10 ocular grid. For each condition, four random fields were selected and the number of invading cells per high power field (HPF) was counted manually at 10× magnification, corresponding to 1 mm^2 area. […]

**Q.** Which “Magnitude of potentiation in combination with doxorubicin” value (“Magnitude of potentiation” for short) [1] does the source give for `CO[C@H]1/C=C/O[C@@]2(C)Oc3c(C)c(O)c4c(c3C2=O)C2=NC3(CCN(CC(C)C)CC3)NC2=C(NC(=O)/C(C)=C\C=C\[C@H](C)[C@H](O)[C@@H](C)[C@@H](O)[C@@H](C)[C@H](OC(C)=O)[C@@H]1C)C4=O` [Rifabutin, rifabutin] here?
**A.** +++ (potentiation greater than 5 fold increase)

**Q.** And the “sensitivity of cells to CHOP relative to a control drug” value ([2]; CHOP-sensitive cells as printed, FIG. 2B)?
**A.** enhanced the sensitivity

**Q.** What about the “CHOP sensitivity of low-ROS cell population” value ([2]; low-ROS CRL2631 cells, 10 uM rifabutin) of the same molecule?
**A.** sensitized to CHOP

**Q.** What about the “cell growth in the absence of CHOP” value ([2]; rifabutin alone, CRL2631) of the same molecule?
**A.** did not affect the growth

**Q.** What about the “CHOP dose giving significant growth inhibition” value ([3]; CHOP with 5 μM rifabutin) of the same molecule?
**A.** 320 ng/mL and 640 ng/mL

**Q.** What about the “cell viability in the absence of CHOP” value ([3]; rifabutin alone) of the same molecule?
**A.** no effect on cell viability

**Q.** And the average tumor volume ([4]; after 19 days treatment, DOX 3.3 mg/kg i.v. + rifabutin 25 mg/kg oral weekly)?
**A.** 348 mm^3

**Q.** And the “reduction in tumor size versus DOX-only” value ([4]; after 19 days, DOX 3.3 mg/kg i.v. + rifabutin 25 mg/kg oral)?
**A.** 40%

**Q.** What about the “relative fluorescence (invading cells)” value (G3 cells [5]) of the same molecule?
**A.** 114,395 RLU

**Q.** What about the “Magnitude of potentiation” value [6] of the same molecule?
**A.** ++ (potentiation between 2.1 to 5 fold increase)

**Q.** What about the “Magnitude of potentiation” value [7] of the same molecule?
**A.** + (potentiation between 1.2 to 2.0 fold increase)

**Q.** And the reduction of invasion (G3 cells [8])?
**A.** up to 30%

Source: patent publication US20150017673A1, “COMPOSITIONS AND METHODS FOR DRUG-SENSITIZATION OR INHIBITION OF A CANCER CELL” (priority 2012, published 2015)
